Data set [1] can be described thus: Precipitation of MnSO4 in pH 7.4 HEPES buffer (metal compatible solution). The following applies: 300 mM solution of MnSO4 in pH 7.4 HEPES buffer. In kind it is physicochemical. The procedure: Preferably, the metal solution should be clear and soluble, free of aggregation, precipitation or flocculation for at least about 4 hours. By way of example, a 300 mM solution of MnSO4 in pH 7.4 HEPES buffer as described in Cheung, et al. [supra] is not a metal compatible solution as it produces an obvious brown precipitate of Mn(OH)2 comprising approximately 6-7 molar % of the manganese added to the solution.
An alternative preferred method of determining whether a metal solution is metal compatible is by centrifugation (e.g. 100 ml sample at 1000 rpm for 10 minutes) to collect any precipitate, measuring the amount of precipitate collected and determining the proportion of the metal added to the original solution present in the precipitate. The amount of metal in the precipitate should not exceed about 1 molar % of the amount of metal added to the original solution.

Data set [2] is described as follows: Active (metal-based, citrate or ionophore) loading of drug into liposomes; spin column, drug-to-lipid ratio. The class given is physicochemical. The procedure:
Lipids were dissolved in chloroform solution and subsequently dried under a stream of nitrogen gas and placed in a vacuum pump to remove solvent. Unless otherwise specified, trace levels of radioactive lipid 3H-CHE were added to quantify lipid during the formulation process. The resulting lipid film was placed under high vacuum for a minimum of 2 hours. The lipid film was hydrated in the solution indicated to form multilamellar vesicles (MLVs). The resulting preparation was extruded 10 times through stacked polycarbonate filters with an extrusion apparatus (Lipex Biomembranes, Vancouver, BC) to achieve a mean liposome size between 80 and 150 nm. All constituent lipids of liposomes are reported in mole %.
At various time points after initiation of drug loading, aliquots were removed and passed through a Sephadex G-50 spin column to separate free from encapsulated drug. To a specified volume of eluant, Triton X-100 or N-ocyl beta-D-glucopyranoside (OGP) was added to solubilize the liposomes. Following addition of detergent, the mixture was heated to the cloud point of the detergent and allowed to cool to room temperature before measurement of the absorbance or fluorescence. Drug concentrations were calculated by comparison to a standard curve.
In order to determine whether copper loading of irinotecan in the absence of a pH gradient could occur using a cholesterol-free formulation, DSPC/DSPG (80:20 mole ratio) liposomes containing copper(II) gluconate were prepared with an external and internal pH of 7.4. […] The lipid films were hydrated in 100 mM Cu(II) gluconate adjusted to pH 7.4 with triethanolamine (TEA) and extruded at 70° C. […] Irinotecan was added to the liposome preparation at a 0.1:1 drug-to-lipid mole ratio and incubated at 50° C. The extent of drug loading was determined as described in the methods by measuring absorbance at 370 nm and lipid levels were determined by liquid scintillation counting.
Loading of daunorubicin into DSPC/DSPG (90:10 mole ratio) liposomes containing encapsulated CuSO4 buffered to pH 7.4 was also investigated. […] A solution of 150 mM CuSO4, 20 mM histidine (adjusted to pH 7.4 using TEA), was employed as the hydration medium and MLVs were extruded at 70° C. […] Daunorubicin was loaded at a 0.1:1 drug/lipid weight ratio. A drug-to-lipid ratio at various time points during loading was determined by measuring absorbance at 480 nm after solubilization in detergent to quantify daunorubicin as described; lipid levels were determined by liquid scintillation counting.
The liposomes were prepared as described in the methods by hydrating lipid films in a solution of 100 mM copper(II) gluconate adjusted to pH 7.4 with TEA. Liposomes were extruded at 65° C. and the external buffer of the liposomes was exchanged to SHE, pH 7.4 by tangential flow dialysis. Liposomes were incubated with irinotecan at a 0.1:1 drug-to-lipid weight ratio at 50° C. and the extent of drug loading was determined as described by measuring absorbance at 370 nm after solubilization by detergent.
In addition to copper loading, loading of drug using MnSO4 containing liposomes in the absence of a pH gradient was also investigated. […] Lipids films were prepared as described and hydrated in 300 mM MnSO4 buffered to pH 7.4 with 20 mM imidazole (initial pH was adjusted to 7.4 with concentrated HCl) and extrusion was carried out at 70° C. The samples were run down a Sephadex G-50 column to exchange the exterior buffer with SHE, pH 7.4.

Assay in data set [3]: as above
The class given is physicochemical. The source holds these as a separate data set.

A short description of data set [4]: Plasma drug-to-lipid ratio 24 hours after intravenous administration of daunorubicin liposomes. The following applies: DSPC/DSPE-PEG2000 (95:5) liposomes with citrate pH 4.0, CuSO4 or MnSO4; Balb/c mice, lipid 100 mg/kg, daunorubicin 10 mg/kg. In kind it is in vivo. The procedure: DSPC/DSPE-PEG2000 liposomes were prepared as described and extruded at 75° C. The external solution was exchanged to HBS by dialysis against HBS. […] Plasma lipid concentrations were determined by liquid scintillation counting. […] The resulting mixture was mixed and 2 mL of 1:1 isopropanol/chloroform was added followed by vortexing. The samples were frozen at −20° C. overnight or −80° C. for 1 hour to promote protein aggregation, brought to room temperature, vortexed and centrifuged at 3000 rpm for 10 minutes.

Consider two compounds from patent US7744921B2, “Liposome loading with metal ions” (Celator Pharmaceuticals, Inc., priority 2001, dated 2010).

“Also recorded” adds a separate entry of the source. Like-named read-outs stand apart in the source and are kept apart here. Where only a bound is given, the exact number is not on record here.

Consider `O=S(=O)([O-])[O-].[Mn+2]` [MnSO4 in pH 7.4 HEPES buffer, MnSO4], for which the “proportion of added manganese in Mn(OH)2 precipitate” value in data set [1] is 6-7 molar %.
Regarding `COc1cccc2c1C(=O)c1c(O)c3c(c(O)c1C2=O)C[C@@](O)(C(C)=O)C[C@@H]3O[C@H]1C[C@H](N)[C@H](O)[C@H](C)O1` [daunorubicin], in data set [2], the added drug encapsulated is given as greater than 90%, the “encapsulation compared to CuCl2 (in words)” value is on record as “not as efficient” and the “loading (in words)” value is reported as “most efficient; also recorded: occurred to a lesser extent; also recorded: less efficient”. Further, in data set [2] (DSPC/DSPE-PEG2000 (95:5), 300 mM MnSO4, loading temperature 60° C.), the “daunorubicin to lipid ratio achieved” value is reported as 0.07 mol:mol. Besides, the drug encapsulation entry in data set [2] (DSPC/DSPE-PEG2000 (95:5), 300 mM NiSO4, SHE pH 7.4, weight ratio 0.2:1, 60° C., within 5 minutes) is “greater than 75%”. In addition, in data set [2] (pH 7.4), the “loading (in words)” value is listed as “efficiently load” and the uptake into liposomes is given as 100%. In addition, in data set [3], the drug encapsulation amounted to 80% and the encapsulation is greater than 95%. Moreover, in data set [4], the “plasma drug-to-lipid ratio 24 hours after intravenous administration (in words)” value is “differing plasma drug-to-lipid ratios”.
